The structures appear in SMILES notation. ≈ marks a conversion by molar mass, not a printed value. Where two headings read alike, the source gives them in different places.

Test [1] relates to Streptococcus pyogenes C203. The experiment in a line: MIC, standard agar-dilution assay (Table III). It is filed as cell-based. The procedure: (§1) The MIC's s in Table III were determined by standard agar-dilution assays. The MIC's in Table IV were obtained using a conventional broth-dilution microtiter test.
Test [2] concerns Streptococcus Group D 2041. The experiment in a line: MIC, standard agar-dilution assay (Table III). The test is classed as cell-based. The following applies: GROUPD2041. The procedure: as §1
The test system of test [3] is Staphylococcus epidermidis EPI1. Put plainly: MIC, standard agar-dilution assay (Table III). It is filed as cell-based. The procedure: as §1
Test [4] relates to Haemophilus influenzae C.L. The experiment in a line: MIC, standard agar-dilution assay (Table III). The test is classed as cell-based. The procedure: as §1
The subject of test [5] is Streptococcus Group D X66. The experiment in a line: MIC, standard agar-dilution assay (Table III). It is filed as cell-based. How it is done: as §1
Test [6] relates to Staphylococcus aureus S13E. Put plainly: MIC, standard agar-dilution assay (Table III). The test is classed as cell-based. The procedure:
as §1

For test [7], the system named is Staphylococcus epidermidis 222. The experiment in a line: MIC, standard agar-dilution assay (Table III). It is filed as cell-based. The following applies: agar dilution; Staphylococcus epidermidis 222; read-out: MIC. The procedure:
as §1

The subject of test [8] is Haemophilus influenzae 76. The experiment in a line: MIC, standard agar-dilution assay (Table III). It is filed as cell-based. The following applies: agar dilution; Haemophilus influenzae 76, ampicillin-resistant strain; read-out: MIC. The procedure:
as §1
On the technique in general: In agar dilution, organisms are placed on agar that contains the substance at set levels.

Test [9] relates to Staphylococcus aureus X400. Put plainly: MIC, standard agar-dilution assay (Table III). It is filed as cell-based. The following applies: Staphylococcus aureus, X400. How it is done:
as §1

Test [10] concerns Staphylococcus aureus V41. Put plainly: MIC, standard agar-dilution assay (Table III). It is filed as cell-based. The following applies: Staphylococcus aureus V41, penicillin-resistant strain. How it is done:
as §1

Test [11] relates to Staphylococcus aureus X1.1. The experiment in a line: MIC, standard agar-dilution assay (Table III). It is filed as cell-based. How it is done: as §1
The subject of test [12] is Streptococcus pneumoniae Park I. The experiment in a line: microbe, parasite or virus in culture. The test is classed as cell-based. The procedure: as §1
Test [13] deals with Streptococcus pyogenes. The experiment in a line: ED50 vs Streptococcus pyogenes experimental infection in mice (Table VI). The test is classed as in vivo. The following applies: two doses, several values = results from more than one test. How it is done:
(§2) Certain formula 1a compounds have also shown in vivo antimicrobial activity against experimental bacterial infections. When two doses of test compound were administered to mice in experimental infections, the activity observed was measured as an ED50 value [effective dose in mg/kg to protect 50% of the test animals: see Warren Wick, et al., J. Bacteriol. 81, 233-235 (1961)].

Test [14] relates to Staphylococcus aureus. Put plainly: ED50 vs. Staphylococcus aureus experimental infection in mice (Table V). It is filed as in vivo. The following applies: two doses, dose protecting 50% of animals. The procedure: as §2
In test [15] the test system is Streptococcous pneumoniae. The experiment in a line: ED50 vs. Streptococcous pneumoniae experimental infection in mice (Table VII). The following applies: Mus musculus, two doses. The test is classed as in vivo. How it is done:
as §2

[16] abbreviates: agar dilution, Streptococcus pyogenes C203, read-out: MIC.
The mark [17] stands for this setting: Staphylococcus epidermidis, EPI1.
The mark [18] stands for this setting: agar dilution, Streptococcus pneumoniae Park I, read-out: MIC.
Setting [19] is: sc, subcutaneous, read-out: ED50 Subcutaneous.
Setting [20] is: agar dilution, Haemophilus influenzae C.L., ampicillin-sensitive strain, read-out: MIC.
[21] abbreviates: Streptococcus pneumoniae, read-out: MIC.
Setting [22] is: agar dilution, Streptococcus Group D X66, read-out: MIC.

A word on the ED50: it is the dose that gives a 50% effect, or the effect in half of the subjects. Turning to `CCC1OC(=O)CC(O)C(C)C(OC2OC(C)C(O)C(N(C)C)C2O)C(CC=O)CC(C)C(=O)C=CC(C)=CC1CN(Cc1ccccc1)C1CC2CCC1C2` (stereo not shown) [Compound 6, 23-deoxy-23-[N--benzyl-N--(bicyclo[2.2.1]hept-2-yl)amino]-OMT], the MIC in test [1] (setting [16]) turned out to be 0.06 µg/mL (≈ 0.0768 µM); in test [2], 0.25 µg/mL (≈ 0.32 µM); in [3] (setting [17]) it was 0.25 µg/mL (≈ 0.32 µM); in [4] (Haemophilus influenzae), 1 µg/mL (≈ 1.28 µM); in [5] it was 0.25 µg/mL (≈ 0.32 µM); in [6], 0.25 µg/mL (≈ 0.32 µM). The MIC is 0.06 µg/mL (≈ 0.0768 µM) in test [7]; 0.5 µg/mL (≈ 0.64 µM) in test [8]; 0.25 µg/mL (≈ 0.32 µM) in [9]; 0.25 µg/mL (≈ 0.32 µM) in [10]; 0.25 µg/mL (≈ 0.32 µM) in test [11]; 0.125 µg/mL (≈ 0.16 µM) in test [12] (setting [18]). Moreover, the ED50 in test [13] (po, read-out: ED50 Oral) is over 100 mg/kg; in test [13] (setting [19]), over 10 mg/kg.
Turning to `CCC1OC(=O)CC(O)C(C)C(OC2OC(C)C(O)C(N(C)C)C2O)C(CC=O)CC(C)C(=O)C=CC(C)=CC1CN1CCC2CCCCC21` (stereo not shown) [Compound 35, 23-deoxy-23-(octahydro-1H--indol-1-yl)-OMT], the MIC in [1] (Streptococcus pyogenes, C203) worked out at 0.5 µg/mL (≈ 0.709 µM); in test [2], 0.25 µg/mL (≈ 0.355 µM); in [3] (setting [17]), 0.25 µg/mL (≈ 0.355 µM); in test [4] (setting [20]), 0.5 µg/mL (≈ 0.709 µM); in test [5] it was 0.25 µg/mL (≈ 0.355 µM); in [6] it was 0.25 µg/mL (≈ 0.355 µM). Also, the MIC is 0.125 µg/mL (≈ 0.177 µM) in [7]; 1 µg/mL (≈ 1.42 µM) in test [8]; 0.25 µg/mL (≈ 0.355 µM) in test [9]; 0.25 µg/mL (≈ 0.355 µM) in test [10]; 0.25 µg/mL (≈ 0.355 µM) in [11]; 1 µg/mL (≈ 1.42 µM) in [12] (setting [18]). Also, the ED50 in [14] (po, read-out: ED50 Oral) was 100 mg/kg; in test [15] (po, read-out: ED50 Oral) it was 71 mg/kg; in test [13] (po, read-out: ED50 Oral), 87.1 mg/kg; in [13] (setting [19]) it was 1.86 mg/kg. Further, in test [13] (subcutaneous), the “ED50 Subcutaneous” value was found to be 2.5 mg/kg × 2.
For `CCC1OC(=O)CC(O)C(C)C(OC2OC(C)C(O)C(N(C)C)C2O)C(CC=O)CC(C)C(=O)C=CC(C)=CC1CN1CCC2CCCCC2C1` (stereo not shown) [Compound 33, 23-deoxy-23-(octahydro-1H--isoquinolin-2-yl)-OMT], the MIC worked out at 0.03 µg/mL (≈ 0.0417 µM) in test [1] (Streptococcus pyogenes, C203); 0.5 µg/mL (≈ 0.695 µM) in [2]; 0.5 µg/mL (≈ 0.695 µM) in [3] (setting [17]); 0.5 µg/mL (≈ 0.695 µM) in [4] (Haemophilus influenzae); 0.5 µg/mL (≈ 0.695 µM) in test [5]; 0.5 µg/mL (≈ 0.695 µM) in test [6]. For the same molecule, the MIC in test [7] is 0.125 µg/mL (≈ 0.174 µM); in [8], 0.25 µg/mL (≈ 0.348 µM); in test [9], 0.25 µg/mL (≈ 0.348 µM); in test [10] it was 0.5 µg/mL (≈ 0.695 µM); in test [11], 0.5 µg/mL (≈ 0.695 µM); in [12] (setting [21]) it was 0.06 µg/mL (≈ 0.0835 µM). Further, the results for the ED50 in test [14] (setting [19]), in test [15] (setting [19]) and in test [13] (setting [19]) were 7.56 mg/kg, 10 mg/kg and over 10 mg/kg, respectively.
Take `CCC1OC(=O)CC(O)C(C)C(OC2OC(C)C(O)C(N(C)C)C2O)C(CC=O)CC(C)C(=O)C=CC(C)=CC1CN1CCc2ccccc2C1` (stereo not shown) [Compound 29, 23-deoxy-23-(3,4-dihydro-1H--isoquinolin-2-yl)-OMT]: the MIC was 0.06 µg/mL (≈ 0.0842 µM) in [1] (setting [16]); 0.25 µg/mL (≈ 0.351 µM) in [2] (agar dilution, Streptococcus Group D 2041, read-out: MIC); 0.125 µg/mL (≈ 0.175 µM) in [3] (agar dilution, Staphylococcus epidermidis EPI1, read-out: MIC); 1 µg/mL (≈ 1.4 µM) in [4] (setting [20]); 0.125 µg/mL (≈ 0.175 µM) in test [5] (setting [22]); 0.25 µg/mL (≈ 0.351 µM) in [6]. For the same molecule, the MIC came out at 0.125 µg/mL (≈ 0.175 µM) in [7]; 1 µg/mL (≈ 1.4 µM) in [8]; 0.25 µg/mL (≈ 0.351 µM) in test [9]; 0.25 µg/mL (≈ 0.351 µM) in test [10]; 0.25 µg/mL (≈ 0.351 µM) in test [11]; 0.03 µg/mL (≈ 0.0421 µM) in test [12] (Streptococcus pneumoniae). For the same molecule, the ED50 in test [14] (setting [19]), in test [15] (setting [19]) and in [13] (setting [19]) was over 10 mg/kg throughout.
For `CCC1OC(=O)CC(O)C(C)C(OC2OC(C)C(O)C(N(C)C)C2O)C(CC=O)CC(C)C(=O)C=CC(C)=CC1CN1CCC2(CCCCC2)CC1` (stereo not shown) [Compound 27, 23-deoxy-23-(3-azaspiro[5.5]undecan-3-yl)-OMT], the MIC in [1] (setting [16]) stood at 0.25 µg/mL (≈ 0.341 µM); in test [2] it was 0.5 µg/mL (≈ 0.682 µM); in test [3] (setting [17]), 0.5 µg/mL (≈ 0.682 µM); in [4] (setting [20]), 2 µg/mL (≈ 2.73 µM); in test [5] (setting [22]) it was 0.25 µg/mL (≈ 0.341 µM); in test [6], 0.5 µg/mL (≈ 0.682 µM). The MIC in [7] was 0.25 µg/mL (≈ 0.341 µM); in test [8], 2 µg/mL (≈ 2.73 µM); in test [9] it was 0.5 µg/mL (≈ 0.682 µM); in test [10], 0.5 µg/mL (≈ 0.682 µM); in test [11] it was 0.5 µg/mL (≈ 0.682 µM); in [12] (setting [21]), 0.06 µg/mL (≈ 0.0819 µM). Also, the figures for the ED50 in test [14] (setting [19]), in test [15] (setting [19]) and in test [13] (setting [19]) were 3.08 mg/kg, over 10 mg/kg and over 10 mg/kg, respectively.

(Values after patent US4604380A, “C-23-substituted mycaminosyltylonolide compounds, pharmaceutical compositions and methods of use” (Eli Lilly and Company, priority 1985, dated 1986).)
